# Results as given in patent publication EP3725756A2, “COMPOSITIONS WITH IMPROVED UREASE-INHIBITING EFFECT COMPRISING AMINES, OR COLORANTS, AND AN ADDUCT OF THE THREE COMPOUNDS N-(N-BUTYL) THIOPHOSPHORIC ACID TRIAMIDE (NBPT), UREA, AND FORMALDEHYDE” (BASF SE, priority 2019, dated 2020).
# Assay: physchem
# Type: physicochemical
# Protocol: "Not dissociable" means that the pKa value (logarithmic measure of the acid dissociation constant) for the reaction alcohol (D) → deprotonated alcohol (D) + H^+ of the hydroxy group in the neutral aqueous phase is more than 9.9, more preferably more than 11, most preferably more than 12, particularly preferably more than 13, for example more than 14 as measured in de-ionized water at 25° C and atmospheric pressure.
structure (smiles),measurement,value
"CC(O)CO (stereo not shown) [propane-1,2-diol]",pKa,14.9
